Measurements: patent publication US20060110743A1, “Drug evolution: drug design at hot spots” (priority 2004, published 2006)

Experiment: UV absorbance (UV spectra), sunscreen properties
Format: physicochemical
Excerpt: FIG. 1 through 8 show UV spectra of 111 compounds sharing PABA “hot building block”, their 16 synthetic intermediates, and one compound with salicylic acid building block. Reference numerals identify compounds according to the numbering adopted in the Experimental section and elsewhere in the specification.
UV-B (290-320 nm) radiation is known to be harmful for human skin. Acute negative effects include inflammation, sunburns, pigmentation changes and hyperplasia. Chronic negative effects include photoaging, immunosuppression and photocarcinogenesis, including squamous cells, basal cells and melanoma skin cancer. The UV-B radiation is also responsible for 98% of cases of delayed erythema development.
Various sunscreen agents have been developed to protect human skin from this harmful UV-B radiation. One known class of such UV-B sunscreen agents is PABA and its various derivatives. Their UV-protecting properties are due to their strong UV absorbance (e266=15,000 for p-aminobenzoic acid). […] As such, these compounds are useful as sunscreen agents.

Nc1ccc(C(=O)O)cc1 [Compound (59), 4-Aminobenzoic acid]
UV absorbance e266: 15,000
